According to patent US5100909A, “Acetylenic imidazoles having central nervous system activity” (The Upjohn Company, priority 1991, dated 1992):
“And” between values parts separate entries of the source, which are not always exact repeats. Equal entries are not always repeated. Where two headings read alike, the source gives them in different places.

Key:
[1] = molecular target: CNS cholinergic receptor; format: binding; conditions: for Ki: tritiated quinuclidine benzylate, read-out: CNS Cholinergic Receptor Binding Assays Ki (nM) QNB; for Ki ratio (Ki QNB/Ki oxotremorine M): QNB vs oxotremorine M binding; for cholinergic agonist / antagonist / partial agonist classification by Ki ratio: from Ki QNB/Ki oxotremorine M ratio
[2] = molecular target: CNS cholinergic receptor; assay: Cholinergic receptor binding assay, tritiated oxotremorine M ligand; conditions: read-out: CNS Cholinergic Receptor Binding Assays Ki (nM) Oxotremorine
[3] = system: HCl-induced writhing in CF1 mice; assay: Analgesic activity, HCl writhing protection in mice; format: in vivo; conditions: Mus musculus, sc, 0.25 h, read-out: CNS Id (ED50 mg/kg) HCl Writh. Protect
Experimental: For determination of analgesic activity, the test compound was injected subcutaneously into a group of four CF1 mice. Thirty minutes later the mice were injected i.p. with 0.15% HCl, 10 ml./kg. Mice are then placed in plastic boxes and observed for fifteen minutes to record the number of animals failing to writhe.

[4] = system: oxotremorine-induced body tremor in mice; assay: Oxotremorine antagonist assay (body tremor) in mice; format: in vivo; conditions: Mus musculus, ip, read-out: Oxot. Antagonist Tremor (ED50)
Experimental: Oxotremorine antagonist assays were performed on groups of six mice weighing 18-22 g. Each was dosed intraperitoneally with the test compound prepared in 0.25% methylcellulose and were placed in individual cages. Twenty minutes later the mice were injected subcutaneously with 0.5 mg/kg of oxotremorine dissolved in saline. Ten minutes later the mice were scored for body tremor. Doses of the compound under study began at 100 mg/kg and were decreased at a 0.5 log interval until no responders were obtained.

[5] = system: scopolamine-induced amnesia in mice; assay: Antagonism of amnesia produced by scopolamine, one trial step through passive avoidance; format: in vivo, mouse; conditions: i.p. test compound, scopolamine hydrobromide 1 mg/kg s.c.; retention 24 hrs
Text: For antagonism of amnesia produced by scopolamine a one trial, step through passive avoidance paradigm was used. In this procedure a mouse was placed on a square platform adjoining darkened chamber. The mouse could enter the chamber through a hole above the platform. Following placement on the platform, the mouse was enclosed by a clear plexiglas cover which mildly restricted movement, limiting the animal to turning around and partial rearing. A sliding door was opened after this, exposing the entrance to the chamber. A timer was started at the same time the door was opened, in order to record latency to enter the chamber. Upon complete entry into the darkened box, the door was closed behind the mouse and a 1 mA, 2 sec, direct current shock applied to the feet of the mouse through the grid floor. The mouse was immediately removed from the chamber and returned to a 24 hr group holding cage.
Drug testing involved intraperitoneal injection of the test compound followed 15 min later by subcutaneous injection of 1 mg/kg scopolamine hydrobromide. […] The latency for each mouse to enter the chamber was recorded, with a cut-off at 180 sec.
Median group latencies to enter the chamber during both training and testing were recorded and a Wilcoxon rank sum test applied to data comparing the parallel "scopolamine only" group with all drug combination groups on testing. […]

[6] = s.c. test compound, 30 min before 0.15% HCl i.p., CF1 mice
[7] = i.p. test compound, 20 min before oxotremorine 0.5 mg/kg s.c., mice

| Structure (SMILES) | Ki [1] | Ki [2] | ED50 [3, 6] [mg/kg] | ED50 [4, 7] [mg/kg] | ED50 [4] [mg/kg] | antagonism of amnesia produced by scopolamine [5] | ED50 [3] [mg/kg] | Ki ratio (Ki QNB/Ki oxotremorine M) [1] | cholinergic agonist / antagonist / partial agonist classification by Ki ratio [1] |
| --- | --- | --- | --- | --- | --- | --- | --- | --- | --- |
| CC1CCC(=O)N1CC#CCn1ccnc1 (stereo not drawn) [Compound 5, 1-[4-(1H-Imidazol-1-yl)-2-butynyl]-5-methyl-2-pyrrolidinone] | 171 nM | 23 nM | > 50 | 20.9 |  |  |  |  |  |
| CC(=O)N(C)C(C)C#CCN1CCCC1 (stereo not drawn) [BM-5, reference compound] |  |  | 4.4 | 3.7 |  |  |  |  |  |
| Cc1cncn1CC#CCN1C(=O)CCC1=O [Compound 11, 1-[4-(5-Methyl-1H-imidazol-1-yl)-2-butynyl]-2,5-pyrrolidinedione] | 100 nM | 10.3 nM |  |  | 37 |  |  |  |  |
| CN(C)C(=O)N(C)CC#CCn1ccnc1 [Compound 24, [4-(1H-Imidazol-1-yl)-2-butynyl]trimethyl urea] |  | 34 nM |  | > 100 |  | most active |  |  |  |
| CC(=O)N(C)C(C)C#CCn1c(C)cnc1C (stereo not drawn) [Compound 18, N-[4-(2,5-Dimethyl-1H-imidazol-1-yl)-1-methyl-2butynyl]-N-methylacetamide] | 8.5 nM | 6.3 nM |  | 14.2 |  |  |  |  |  |
| CN(C)CC#CCn1ccnc1 [Compound 29, 4-(1H-Imidazol-1-yl)-N,N-dimethyl-2-butyn-1-amine] |  | 10000 nM |  |  | > 100 |  | > 50 |  |  |
| O=C1CCC(=O)N1CC#CCn1ccnc1 [Compound 10, 1-[4-(1H-Imidazol-1-yl)-2-butynyl]-2,5-pyrrolidinedione] | 634 nM | 23.5 nM |  |  | 25 |  |  |  |  |
| Cc1cncn1CC#CCN(C)C(=O)N(C)C [Compound 25, [4-(5-Methyl-1H-imidazol-1-yl)-2-butynyl]trimethyl urea] |  | 82.1 nM |  | > 100 |  |  |  |  |  |
| CC(=O)N(C)C(C)C#CCn1cncc1C (stereo not drawn) [Compound 21, N-[4(5-Methyl-1H-imidazol-1-yl)-1-methyl-2-butynyl]-N-methylacetamide] | 184 nM | 10 nM |  | 80 |  |  |  |  |  |
| COC(=O)N(C)CC#CCn1cncc1C [Compound 27, Methyl [4-(5-methyl-1H-imidazol-1-yl)-2-butynyl]methyl carbamate] |  | 200 nM |  | > 100 |  |  |  |  |  |
| COC(=O)N(C)CC#CCn1ccnc1 [Compound 26, Methyl [4-(1H-imidazol-1-yl)-2-butynyl]methylcarbamate] |  | 120 nM |  | > 100 |  |  |  |  |  |
| O=C1CCCN1CC#CCn1ccnc1Cl [Compound 8, 1-[4-(2-Chloro-1H-imidazol-1-yl)-2-butynyl]-2-pyrrolidinone] |  | 577 nM |  | > 100 |  |  |  |  |  |
| CC(C#CCn1ccnc1)N1CCCC1=O (stereo not drawn) [Compound 6, 1-[4-(1H-Imidazol-1-yl)-1-methyl-2-butynyl]-2-pyrrolidinone] | 566 nM | 33.5 nM | > 50 | 45 |  |  |  |  |  |
| Cc1cn(CC#CCN2CCCC2=O)cn1 [Compound 9, 1-[4-(4-Methyl-1H-imidazol-1-yl)-2-butynyl]-2-pyrrolidinone] | 377 nM | 10.3 nM |  | > 100 |  |  |  |  |  |
| Cc1cncn1CC#CCN1CCCC1 [Compound 32, 5-Methyl-1[(4-pyrrolidinyl)-2-butynyl]-1H-imidazole] |  | 436 nM |  |  | > 100 |  |  |  |  |
| CC(=O)N(C)C(C)C#CCn1ccnc1C (stereo not drawn) [Compound 15, N-[4-(2-Methyl-1H-imidazol-1-yl)-1-methyl-2-butynyl]-N-methylacetamide] | 19 nM | 1.6 nM | > 50 | 11.8 |  | most active |  |  |  |
| Cc1cncn1CC#CCN1CCCC1=O [Compound 3, 1-[4-(5-Methyl-1H-imidazol-1-yl)-2-butynyl]-2-pyrrolidinone] | 64 nM and 79.8 nM | 3.2 nM and 3.3 nM | 2.6 |  |  |  |  | intermediate Ki ratios | cholinergic partial agonists |

| Structure (SMILES) | Ki [1] | Ki [2] | ED50 [3, 6] [mg/kg] | ED50 [4, 7] [mg/kg] | ED50 [4] [mg/kg] | antagonism of amnesia produced by scopolamine [5] | ED50 [3] [mg/kg] | Ki ratio (Ki QNB/Ki oxotremorine M) [1] | cholinergic agonist / antagonist / partial agonist classification by Ki ratio [1] |
| --- | --- | --- | --- | --- | --- | --- | --- | --- | --- |
| Cc1nccn1CC#CCN1CCCC1=O [Compound 2, 1-[4-(2-Methyl-1H-imidazol-1-yl)-2-butynyl]-2-pyrrolidinone] | 3.8 nM | 0.3 nM | 0.1 | > 100 |  |  |  | < 10 | cholinergic antagonists |
| Cc1nccn1CC#CCN1CCCC1 [Compound 30, 2-Methyl-1-[4-(pyrrolidinyl)-2-butynyl]-1H-imidazole] |  |  |  |  | > 100 |  | 5 |  |  |
| O=C1CCCN1CC#CCn1ccnc1 [Compound 1, 1-[4-(1H-Imidazol-1-yl)-2-butynyl]-2-pyrrolidinone] | 600 nM | 1.3 nM | 0.4 |  | > 100 |  |  | > 100 | cholinergic agonists |
| CC(=O)N(C)C(C)C#CCn1cc(C)nc1C (stereo not drawn) [Compound 17, N-[4-(2,4-Dimethyl-1H-imidazol-1-yl)-1-methyl-2-butynyl]-N-methylacetamide] | 180 nM | 130 nM | > 50 | 80 |  |  |  |  |  |
| C(#CCn1ccnc1)CN1CCCC1 [Compound 28, 1-[4-(Pyrrolidinyl)-2-butynyl]-1H-imidazole] |  |  |  |  | > 100 |  | 3.1 |  |  |
| CC(=O)N(C)C(C)C#CCn1ccnc1 (stereo not drawn) [Compound 14, N-[4-(1H-Imidazol-1-yl)-1-methyl-2-butynyl]-N-methylacetamide] | 1500 nM | 12 nM | 0.9 | > 100 |  |  |  |  |  |
| Br.Cc1cncn1CC#CC(C)N1CCCC1=O (stereo not drawn) [Compound 12, 1-[4-(5-Methyl-1H-imidazol-1-yl)-1-methyl-2-butynyl]-2-pyrrolidinone hydrobromide] | 16.8 nM | 5.2 nM |  | 25 |  |  |  |  |  |
| CC(=O)N(C)CC#CCn1cncc1C [Compound 20, N-[4-(5-Methyl-1H-imidazol-1-yl)-2-butynyl]-N-methylacetamide] | 172 nM | 3.6 nM |  | > 100 |  |  |  |  |  |
| CC(=O)NCC#CCn1ccnc1 [Compound 22, N-[4-(1H-Imidazol-1-yl)-2-butynyl]acetamide] |  | 187 nM |  | > 100 |  |  |  |  |  |
| CC(=O)NCC#CCn1cncc1C [Compound 23, N-[4-(5-Methyl-1H-imidazol-1-yl)-2-butynyl]acetamide] |  | 213 nM |  | > 100 |  |  |  |  |  |
| CC(=O)N(C)C(C)C#CCn1cnc(C)c1C (stereo not drawn) [Compound 16, N-[4-(4,5-Dimethyl-1H-imidazol-1-yl)-1-methyl-2-butynyl]-N-methylacetamide] | 79 nM | 42 nM | > 50 | 25.4 |  |  |  |  |  |
| CCN(CC)CC#CCn1ccnc1 [Compound 31, N,N-Diethyl-4-(1H-Imidazol-1-yl)-2-butyn-1-amine] |  | 10000 nM |  |  | > 100 |  | > 50 |  |  |
| C(#CCN1CCCC1)CN1CCCC1 [Tremorine, reference compound] | 4600 nM | 370 nM |  |  | > 100 |  |  |  |  |
| Cc1cn(CC#CCN2CCCC2=O)c(C)n1 [Compound 4, 1-[4-(2,4-Dimethyl-1H-imidazol-1-yl)-2-butynyl]-2-pyrrolidinone] | 160 nM | 68 nM |  | 54 |  |  | > 50 |  |  |
| CCc1nccn1CC#CCN1CCCC1=O [Compound 7, 1-[4-(2-Ethyl-1H-imidazol-1yl)-2-butynyl]-2-pyrrolidinone] | 56.9 nM | 29.1 nM | > 50 | 9.7 |  |  |  |  |  |
| CC(=O)N(C)CC#CCn1ccnc1 [Compound 19, N-[4-(1H-Imidazol-1-yl)-2-butynyl]-N-methylacetamide] |  | 1.9 nM |  | > 100 |  |  |  |  |  |
| Cc1cncn1CC#CCN1C(=O)CCC1C (stereo not drawn) [Compound 13] | 11.6 nM | 1.7 nM |  | 14 |  |  |  |  |  |
